# Measurements from patent US8933089B2, “HIV inhibiting 5-amido substituted pyrimidines” (Janssen R & D Ireland, priority 2006, dated 2015).
# Tests used:
# Assay type in all cases: cell-based, HIV-1
# HIV strain L100I + K103N = experiment: Cellular anti-HIV assay in MT4 LTR-EGFP cells, mutant L100I + K103N; settings: Human immunodeficiency virus 1, 72 h, read-out: L100I + K103N pEC50 (converted)
# Experimental: (§1) Because of the increasing emergence of drug resistant HIV strains, the present compounds were tested for their potency against clinically isolated HIV strains harbouring several mutations. These mutations are associated with resistance to reverse transcriptase inhibitors and result in viruses that show various degrees of phenotypic cross-resistance to the currently commercially available drugs such as for instance AZT and delavirdine.
# (§2) The antiviral activity of the compound of the present invention has been evaluated in the presence of wild type HIV and HIV mutants bearing mutations at the reverse transcriptase gene. The activity of the compounds is evaluated using a cellular assay which was performed according to the following procedure.
# (§3) The human T-cell line MT4 is engineered with Green Fluorescent Protein (GFP) and an HIV-specific promoter, HIV-1 long terminal repeat (LTR). This cell line is designated MT4 LTR-EGFP, and can be used for the in vitro evaluation of anti-HIV activity of investigational compounds. In HIV-1 infected cells, the Tat protein is produced which upregulates the LTR promotor and finally leads to stimulation of the GFP reporter production, allowing to measure ongoing HIV-infection fluorometrically. Analogously, MT4 cells are engineered with GFP and the constitutional cytomegalovirus (CMV) promotor. This cell line is designated MT4 CMV-EGFP, and can be used for the in vitro evaluation of cytotoxicity of investigational compounds. In this cell line, GFP levels are comparably to those of infected MT4 LTR-EGFP cells. Cytotoxic investigational compounds reduce GFP levels of mock-infected MT4 CMV-EGFP cells.
# (§4) Effective concentration values such as 50% effective concentration (EC50) can be determined and are usually expressed in μM. An EC50 value is defined as the concentration of test compound that reduces the fluorescence of HIV-infected cells by 50%. The 50% cytotoxic concentration (CC50 in μM) is defined as the concentration of test compound that reduces fluorescence of the mock-infected cells by 50%. The ratio of CC50 to EC50 is defined as the selectivity index (SI) and is an indication of the selectivity of the anti-HIV activity of the inhibitor. The ultimate monitoring of HIV-1 infection and cytotoxicity is done using a scanning microscope. Image analysis allows very sensitive detection of viral infection. Measurements are done before cell necrosis, which usually takes place about five days after infection, in particular measurements are performed three days after infection.
# (§5) The columns IIIB, L100I, etc. in the table list the pEC50 values against various strains IIIB, L100I, etc.
# HIV strain K103N = experiment: Cellular anti-HIV assay in MT4 LTR-EGFP cells, mutant K103N; settings: Human immunodeficiency virus 1, read-out: K103N pEC50 (converted)
# Experimental: as §1, §2, §3, §4, §5
# HIV strain MDR = experiment: Cellular anti-HIV assay in MT4 LTR-EGFP cells, MDR strain; settings: Human immunodeficiency virus 1, read-out: MDR pEC50 (converted)
# Experimental: as §1, §2, §3, §4, §5
# MDR refers to a strain that contains mutations L100I, K103N, Y181C, E138G, V1791, L2214F, V278V/I and A327A/V in HIV reverse transcriptase.
# HIV strain K103N + Y181C = experiment: Cellular anti-HIV assay in MT4 LTR-EGFP cells, mutant K103N + Y181C; settings: Human immunodeficiency virus 1, 72 h, read-out: K103N + Y181C pEC50 (converted)
# Experimental: as §1, §2, §3, §4, §5
# [1] = system: HIV strain IIIB (wild type); experiment: Cellular anti-HIV assay in MT4 LTR-EGFP cells, strain IIIB (wild type); selectivity index versus cytotoxicity in mock-infected MT4 CMV-EGFP cells; settings: for EC50: Human immunodeficiency virus 1, 72 h, wild type HIV strain IIIB, MT4 LTR-EGFP cells, fluorescence, three days after infection, read-out: IIIB pEC50 (converted); for IIIB pSi: selectivity index = ratio of CC50 (mock-infected MT4 CMV-EGFP cells) to EC50 (IIIB), given as p value
# Experimental: as §2, §3, §4, §5
# Strain IIIB is wild type HIV strain
# HIV strain Y188L = experiment: Cellular anti-HIV assay in MT4 LTR-EGFP cells, mutant Y188L; settings: Human immunodeficiency virus 1, read-out: Y188L pEC50 (converted)
# Experimental: as §1, §2, §3, §4, §5
# HIV strain L100I = experiment: Cellular anti-HIV assay in MT4 LTR-EGFP cells, mutant L100I; settings: Human immunodeficiency virus 1, read-out: L100I pEC50 (converted)
# Experimental: as §1, §2, §3, §4, §5
# HIV strain Y181C = experiment: Cellular anti-HIV assay in MT4 LTR-EGFP cells, mutant Y181C; settings: Human immunodeficiency virus 1, read-out: Y181C pEC50 (converted)
# Experimental: as §1, §2, §3, §4, §5
SMILES,EC50 (HIV strain L100I + K103N) [nM],EC50 (HIV strain K103N) [nM],EC50 (HIV strain MDR) [nM],EC50 (HIV strain K103N + Y181C) [nM],EC50 [1] [nM],IIIB pSi [1],EC50 (HIV strain Y188L) [nM],EC50 (HIV strain L100I) [nM],EC50 (HIV strain Y181C) [nM]
Cc1cc(/C=C/C#N)cc(C)c1Nc1nc(Nc2ccc(C#N)cc2)ncc1C(=O)NCc1cccs1 [Compound 20],100,5.01,2510,31.6,5.01,3.60,50.1,15.8,39.8
Cc1cc(/C=C/C#N)cc(C)c1Nc1nc(Nc2ccc(C#N)cc2)ncc1C(=O)NCC#N [Compound 21],15.8,5.01,501,15.8,15.8,2.80,15.8,3.98,15.8
Cc1cc(/C=C/C#N)cc(C)c1Nc1nc(Nc2ccc(C#N)cc2)ncc1C(=O)NCCN(C)C [Compound 22],100,0.631,2000,20,0.794,3.90,50.1,20,15.8
Cc1cc(/C=C/C#N)cc(C)c1Nc1nc(Nc2ccc(C#N)cc2)ncc1C(=O)NCc1cccc(Cl)c1 [Compound 25],39.8,15.8,10000,31.6,12.6,3.00,50.1,25.1,79.4
Cc1cc(/C=C/C#N)cc(C)c1Nc1nc(Nc2ccc(C#N)cc2)ncc1C(=O)NCc1ccc(F)cc1 [Compound 26],316,12.6,5010,39.8,12.6,3.00,79.4,25.1,50.1
Cc1cc(/C=C/C#N)cc(C)c1Nc1nc(Nc2ccc(C#N)cc2)ncc1C(=O)NCc1cccc(Br)c1 [Compound 29],126,20,10000,100,15.8,3.00,158,79.4,79.4
Cc1cc(/C=C/C#N)cc(C)c1Nc1nc(Nc2ccc(C#N)cc2)ncc1C(=O)NCc1ccc(N(C)C)cc1 [Compound 30],251,15.8,5010,100,12.6,>3.30,316,100,100
CC(=O)NCCNC(=O)c1cnc(Nc2ccc(C#N)cc2)nc1Nc1c(C)cc(/C=C/C#N)cc1C [Compound 33],15.8,15.8,398,12.6,15.8,>3.20,63.1,15.8,50.1
Cc1cc(/C=C/C#N)cc(C)c1Nc1nc(Nc2ccc(C#N)cc2)ncc1C(=O)NCc1ccc(Br)cc1 [Compound 36],794,25.1,10000,126,25.1,>3.00,398,126,126
Cc1cc(/C=C/C#N)cc(C)c1Nc1nc(Nc2ccc(C#N)cc2)ncc1C(=O)NC1CC1 [Compound 37],20,1.58,1000,7.94,2.51,3.60,12.6,5.01,12.6
Cc1cc(/C=C/C#N)cc(C)c1Nc1nc(Nc2ccc(C#N)cc2)ncc1C(=O)NCCCN1CCCC1 [Compound 38],63.1,1,2000,15.8,0.794,3.70,25.1,25.1,20
Cc1cc(/C=C/C#N)cc(C)c1Nc1nc(Nc2ccc(C#N)cc2)ncc1C(=O)NCC1CC1 [Compound 41],50.1,3.98,1580,20,5.01,>3.70,79.4,7.94,15.8
Cc1cc(/C=C/C#N)cc(C)c1Nc1nc(Nc2ccc(C#N)cc2)ncc1C(=O)NCCCN(C)C [Compound 43],126,10,3160,79.4,12.6,>3.30,79.4,50.1,25.1
Cc1cc(/C=C/C#N)cc(C)c1Nc1nc(Nc2ccc(C#N)cc2)ncc1C(=O)NCCc1ccccn1 [Compound 44],31.6,2.51,1260,10,2,>4.10,7.94,12.6,10
Cc1cc(/C=C/C#N)cc(C)c1Nc1nc(Nc2ccc(C#N)cc2)ncc1C(=O)NCCc1ccc(S(N)(=O)=O)cc1 [Compound 47],126,25.1,501,126,20,3.10,100,63.1,50.1
Cc1cc(/C=C/C#N)cc(C)c1Nc1nc(Nc2ccc(C#N)cc2)ncc1C(=O)NCCc1cccs1 [Compound 48],501,20,10000,200,20,3.10,316,126,126
Cc1cc(/C=C/C#N)cc(C)c1Nc1nc(Nc2ccc(C#N)cc2)ncc1C(=O)NCCCO [Compound 49],63.1,15.8,501,50.1,15.8,3.00,79.4,20,79.4
Cc1cc(/C=C/C#N)cc(C)c1Nc1nc(Nc2ccc(C#N)cc2)ncc1C(=O)NCCN1CCCC1 [Compound 51],126,6.31,2510,63.1,3.98,3.00,100,79.4,63.1
Cc1cc(/C=C/C#N)cc(C)c1Oc1nc(Nc2ccc(C#N)cc2)ncc1C(=O)NCC1CCCO1 (stereo not drawn) [Compound 59],251,6.31,3980,79.4,2.51,3.80,251,63.1,31.6
COCCNC(=O)c1cnc(Nc2ccc(C#N)cc2)nc1Oc1c(C)cc(/C=C/C#N)cc1C [Compound 60],316,12.6,10000,63.1,3.16,3.50,158,79.4,31.6
Cc1cc(/C=C/C#N)cc(C)c1Oc1nc(Nc2ccc(C#N)cc2)ncc1C(=O)NCC#N [Compound 61],50.1,3.98,3160,25.1,3.16,>3.90,100,20,20
